Source: patent publication US11884643B2, “Substituted thiophenecarboxamides and analogues as antibacterials agents” (priority 2018, dated 2024)
Like-named read-outs stand apart in the source and are kept apart here.

How the values were obtained:
[1] = tested on: Xanthomonas campestris pv. Campestris; test: Xanthomonas campestris pv. Campestris in vitro cell test (bacteria growth in liquid culture); assay type: cell-based; settings: 20 ppm of tested compound, 24 h of incubation
Method: Culture medium: LB broth medium (Luria Broth Miller) Sigma
Inoculum: bacteria suspension
Compounds to be tested were solubilized in DMSO and the solution used to prepare the required range of concentrations. The final concentration of DMSO used in the assay was ≤1%.
Inoculum was prepared from a pre-culture of bacteria grown in liquid medium and diluted to the desired optical density (OD).
Compounds were evaluated for their ability to inhibit bacteria growth in liquid culture assay. The compounds were added in the desired concentrations to culture medium containing the bacteria suspension. After 24 h of incubation, the efficacy of compounds was determined by spectrometric measurement of bacteria growth. Inhibition was determined by comparing the absorbance values in wells containing the compounds with the absorbance in control wells without compounds.

[2] = Log P by HPLC on reversed phase columns (EEC directive 79/831 Annex V.A8); assay type: physicochemical
Method: If more than one Log P value is available within the same method, all the values are given and separated by “+”. Calibration was done with straight-chain alkan2-ones (with 3 to 16 carbon atoms) with known Log P values (measurement of Log P values using retention times with linear interpolation between successive alkanones). Lambda-max-values were determined using UV-spectra from 200 nm to 400 nm and the peak values of the chromatographic signals.

[3] = method [a]: LC-UV, acidic range, 0.1% formic acid in water and acetonitrile as eluent
[4] = reversed phase HPLC columns, method [a]: LC-UV, acidic range, 0.1% formic acid in water and acetonitrile as eluent, read-out: LogP
[5] = reversed phase HPLC columns, value given in preparation example, method letter not indicated, read-out: Log P

Structure (SMILES)	LogP [2, 3]	further results
O=C1OC(c2sc(Br)c(Br)c2F)=NC12CC2 [III.01, 5-(4,5-dibromo-3-fluoro-2-thienyl)-6-oxa-4-azaspiro[2.4]hept-4-en-7-one]	–	direct activity (inhibition of bacteria growth) [1]: no direct activity; chromatographic logP ([2]; Log P): 3.58; chromatographic logP ([2]; LogP): 3.57
Cc1c(C2=NC3(CC3)C(=O)O2)sc(Br)c1Br [III.02]	4.33^[a]	direct activity (inhibition of bacteria growth) [1]: no direct activity
O=C1OC(c2sc(Cl)c(Cl)c2Cl)=NC12CC2 [III.03]	4.01^[a]	direct activity (inhibition of bacteria growth) [1]: no direct activity
Cc1c(C2=NC3(CC3)C(=O)O2)sc(Cl)c1Cl [III.04]	4.30^[a]	direct activity (inhibition of bacteria growth) [1]: no direct activity
O=C1OC(c2sc(Br)c(Br)c2I)=NC12CC2 [III.05]	4.30^[a]	direct activity (inhibition of bacteria growth) [1]: no direct activity
O=C1OC(c2sc(Br)c(Br)c2Br)=NC12CC2 [III.06]	4.15^[a]	–
O=C1OC(c2sc(Cl)c(Cl)c2Br)=NC12CC2 [III.07]	4.12^[a]	–
O=C1OC(c2sc(Br)c(Br)c2Cl)=NC12CC2 [III.08]	4.08^[a]	–
O=C1OC(c2sc(Cl)c(Cl)c2I)=NC12CC2 [III.09]	4.23^[a]	–
CCOC(=O)C1(NC(=O)c2sc(Br)c(Br)c2F)CC1 [XXI.01, ethyl 1-{[(4,5-dibromo-3-fluoro-2-thienyl)carbonyl]amino}cyclopropanecarboxylate]	–	chromatographic logP [2, 4]: 3.17; chromatographic logP [2, 5]: 3.15
O=C(NC1(C(=O)O)CC1)c1sc(Br)c(Br)c1F [XXI.03, 1-{[(4,5-dibromo-3-fluoro-2-thienyl)carbonyl]amino}cyclopropanecarboxylic acid]	–	chromatographic logP [2, 4]: 2.14; chromatographic logP [2, 5]: 2.15
CCOC(=O)C1(NC(=O)c2sc(Cl)c(Cl)c2Cl)CC1 [XXI.05, ethyl 1-{[(3,4,5-trichloro-2-thienyl)carbonyl]amino}cyclopropanecarboxylate]	3.41^[a]	–
CCOC(=O)C1(NC(=O)c2sc(Cl)c(Cl)c2I)CC1 [XXI.08, ethyl 1-{[(4,5-dichloro-3-iodo-2-thienyl)carbonyl]amino}cyclopropanecarboxylate]	–	chromatographic logP [2, 4]: 3.39
CCOC(=O)C1(NC(=O)c2sc(Cl)c(Cl)c2C)CC1 [XXI.11, ethyl 1-{[(4,5-dichloro-3-methyl-2-thienyl)carbonyl]amino}cyclopropanecarboxylate]	–	chromatographic logP [2, 4]: 3.16; chromatographic logP [2, 5]: 3.16
Cc1c(C(=O)NC2(C(=O)O)CC2)sc(Cl)c1Cl [XXI.14]	2.17^[a]	–
O=C(NC1(C(=O)O)CC1)c1sc(Cl)c(Cl)c1Br [XXI.22]	2.37^[a]	–
O=C(O)c1sc(Cl)c(Cl)c1Br [XXIIa.06]	2.52^[a]	–
COC(=O)c1sc(Cl)c(Cl)c1Br [XXIIa.09]	4.11^[a]	–
CC(C)COC(=O)c1sc(Cl)c(Cl)c1Cl [XXIIa.13]	5.75^[a]	–
CCOC(=O)C1(NC(=O)c2sc(Cl)c(Cl)c2N)CC1 [XXVIII.01, ethyl 1-{[(3-amino-4,5-dichloro-2-thienyl)carbonyl]amino}cyclopropanecarboxylate]	2.77^[a]	Log P ([2]; value given in preparation example, method letter not indicated): 2.77
Cl.Nc1c(C(=O)O)sc(Cl)c1Cl [XXXa.02, 3-amino-4,5-dichlorothiophene-2-carboxylic acid hydrochloride (1:1)]	2.05^[a]	–
